Laboratory results taken from patent publication US20090312274A1, “Nyasol and Analogs Thereof for the Treatment of Estrogen Receptor Beta-Mediated Diseases” (Bionovo, Inc., priority 2008, published 2009).
Entries after “also recorded” stand apart in the source; their conditions may differ.

Tests used:
ERβ [1] = biological target: T1, ERβ (Homo sapiens, UniProt Q92731); details: in the presence of ERβ
TNF-RE tkLuc = experiment: Activation of the TNF-RE tkLuc reporter (TNF-α, antiestrogens); assay type: cell-based; details: for activation of TNF-RE tkLuc by antiestrogens: in contrast to E2
[2] = biological target: T2, estrogen receptor beta (ERβ) (Homo sapiens, UniProt Q92731); experiment: ERE-tkLuc luciferase expression with nyasol in cells coexpressing ERβ (FIG. 3, FIG. 5); assay type: cell-based
T2 construct: expressed in transfected cells
T2 sequence (Q92731 whole entry): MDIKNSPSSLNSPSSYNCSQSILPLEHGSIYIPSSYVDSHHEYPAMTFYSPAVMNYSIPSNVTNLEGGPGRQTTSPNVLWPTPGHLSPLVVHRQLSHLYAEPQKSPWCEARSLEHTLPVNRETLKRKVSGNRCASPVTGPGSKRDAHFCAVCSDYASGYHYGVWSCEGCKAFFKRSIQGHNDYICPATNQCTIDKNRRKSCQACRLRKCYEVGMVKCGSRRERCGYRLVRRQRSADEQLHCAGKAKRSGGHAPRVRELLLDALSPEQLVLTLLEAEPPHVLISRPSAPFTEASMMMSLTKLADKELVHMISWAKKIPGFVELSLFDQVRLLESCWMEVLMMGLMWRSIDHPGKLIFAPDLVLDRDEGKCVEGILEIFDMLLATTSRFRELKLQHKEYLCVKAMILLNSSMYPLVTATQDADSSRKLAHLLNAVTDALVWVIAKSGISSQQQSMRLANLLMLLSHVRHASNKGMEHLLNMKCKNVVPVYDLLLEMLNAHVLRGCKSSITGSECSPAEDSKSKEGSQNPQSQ
Excerpt: FIG. 3 is a graph comparing luciferase expression in cells transformed with DNA encoding estrogen response element alpha linked to the minimal thymidine kinase (tk) promoter and a sequence encoding luciferase (Luc) in response to varying concentrations of nyasol in the presence of either estrogen receptor alpha (ERα) or estrogen receptor beta (ERβ).

[3] = test system: MCF-7 breast cancer cells; experiment: MCF-7 kidney capsule xenografts in nude mice; design: dose or concentration left out as unconfirmed; details: 28 days
Description: MCF-7 xenografts were introduced into nude mouse kidneys. Mice were randomized to three treatment groups. […] Each treatment group was treated for 28 days, after which mice were euthanized and the kidneys containing the xenografts were excised, photographed and weighed.

ERβ [4] = biological target: T1, ERβ; experiment: Concentration binding curve for Nyasol, ERβ (FIG. 6)
ERα = biological target: T3, ERα (Homo sapiens, UniProt P03372); experiment: Concentration binding curve for Nyasol, ERα (FIG. 6)
T3 sequence (P03372 1-595): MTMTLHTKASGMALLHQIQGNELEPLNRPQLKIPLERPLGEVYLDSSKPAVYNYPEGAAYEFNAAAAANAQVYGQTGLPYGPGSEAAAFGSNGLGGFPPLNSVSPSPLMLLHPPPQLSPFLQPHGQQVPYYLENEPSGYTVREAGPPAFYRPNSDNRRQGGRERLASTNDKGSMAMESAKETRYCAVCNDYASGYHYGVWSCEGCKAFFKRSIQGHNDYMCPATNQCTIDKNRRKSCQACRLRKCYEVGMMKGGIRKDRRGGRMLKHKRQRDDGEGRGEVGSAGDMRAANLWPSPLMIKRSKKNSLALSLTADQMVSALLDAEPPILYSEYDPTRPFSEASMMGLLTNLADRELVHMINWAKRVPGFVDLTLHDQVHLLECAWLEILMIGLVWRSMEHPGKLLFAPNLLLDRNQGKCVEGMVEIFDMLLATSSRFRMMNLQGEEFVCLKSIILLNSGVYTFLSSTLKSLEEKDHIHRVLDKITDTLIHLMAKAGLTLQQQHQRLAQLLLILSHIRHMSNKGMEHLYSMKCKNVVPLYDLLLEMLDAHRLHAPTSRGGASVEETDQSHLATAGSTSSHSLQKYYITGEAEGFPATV

TNFα-RE = experiment: Repression of TNFα-RE linked expression of Luc by nyasol (FIG. 4); details: in vitro
breast cancer = details: among the 5129 women in the raloxifene treatment group; median follow-up 40 months; cited from earlier work
[5] = test system: estrogen receptor-positive breast cancer; details: cited from earlier work
[6] = test system: primary invasive breast cancer; details: women at high risk for breast cancer; cited from earlier work
[7] = five years of tamoxifen therapy

T1 sequence (Q92731 whole entry): as the sequence (Q92731 whole entry) above

**Q.** For `C[C@]12CC[C@@H]3c4ccc(O)cc4CC[C@H]3[C@@H]1CC[C@@H]2O` [E2, estradiol], which “repression of TNF-α activation of TNF-RE tkLuc” value (ERβ [1]) is on record?
**A.** 60-80%

**Q.** With `C[C@]12CC[C@@H]3c4ccc(O)cc4C[C@@H](CCCCCCCCC[S+]([O-])CCCC(F)(F)C(F)(F)F)[C@H]3[C@@H]1CC[C@@H]2O` (some centres unmarked) [ICI 182780] as the compound, how does the “activation of TNF-RE tkLuc by antiestrogens” value (TNF-RE tkLuc) read?
**A.** 2 fold

**Q.** With `C=CC(/C=C\c1ccc(O)cc1)c1ccc(O)cc1` (centres unmarked) [Nyasol, nyasol] as the compound, how does the “ERβ-selective activation of the ERE (luciferase expression, ERβ versus ERα)” value ([2]; FIG. 3, varying concentrations of nyasol, ERE-tkLuc) read?
**A.** selectively activates the ERE; also recorded: selective estrogen receptor beta agonist

**Q.** What about the “expression of luciferase in ERE-tkLuc-transformed cells coexpressing ERβ” value ([2]; FIG. 5, nyasol, control EtOH) of the same compound?
**A.** activated the ERE

**Q.** And the “growth of MCF-7 kidney capsule xenografts compared to control” value [3]?
**A.** inhibits the growth

**Q.** What about the “binding of ERβ with nyasol” value (ERβ [4]) of the same compound?
**A.** bind

**Q.** What about the “binding of ERα with nyasol” value (ERα) of the same compound?
**A.** bind

**Q.** And the “repression of TNFα-RE linked expression of Luc” value (TNFα-RE)?
**A.** selectively represses

**Q.** With `O=C(c1ccc(OCCN2CCCCC2)cc1)c1c(-c2ccc(O)cc2)sc2cc(O)ccc12` [raloxifene] as the compound, how does the “activation of TNF-RE tkLuc by antiestrogens” value (TNF-RE tkLuc) read?
**A.** 2 fold

**Q.** And the “effect of addition to nyasol on activation of the ERE” value ([2]; FIG. 5, added together with Nyasol, ERβ)?
**A.** reduced this activation

**Q.** And the “cases of breast cancer” value (breast cancer)?
**A.** 13 cases

**Q.** What does the source list for `CC/C(=C(\c1ccccc1)c1ccc(OCCN(C)C)cc1)c1ccccc1` [tamoxifen]?
**A.** activation of TNF-RE tkLuc by antiestrogens (TNF-RE tkLuc): 2 fold; reduction of mortality from breast cancer [5, 7]: 22%; reduction of the risk of recurrences [5, 7]: 42%; ER positive breast tumors that respond ([5]; fraction of tumors): ⅔; reduction of the risk of primary invasive breast cancer [6]: 49%

**Q.** With TNF-α as the compound, how does the “activation of 3 copies of the TNF-RE (−125 to −82) upstream of the tk promoter” value (TNF-RE tkLuc; TNF-α as stimulus) read?
**A.** 5-10 fold
